pIC50, pKd: −log10 of the molar value.
Legend:
Pf 3D7-A10 ABS parasites = experiment: 72-h ABS growth inhibition assay, 3D7-A10; assay type: cell-based; conditions: Plasmodium falciparum, 3D7, Line 3D7-A10 wild-type
Description: Synchronicity was achieved using three rounds of sorbitol treatment on early rings, spaced 48 h apart, followed by magnetic purification of segmented schizonts following the final sorbitol treatment. […] Assays were repeated on at least three independent occasions (each with technical duplicates) and statistical significance was assessed using Mann Whitney U tests.

sel. Dd2-B2 TKL3T1268R = experiment: 72-h ABS assay, MMV030084-selected line; assay type: cell-based, Plasmodium falciparum; conditions: Plasmodium falciparum
Description: (§1) Synchronicity was achieved using three rounds of sorbitol treatment on early rings, spaced 48 h apart, followed by magnetic purification of segmented schizonts following the final sorbitol treatment. Parasites were highly synchronous to within a 3 h window of development. Assays were repeated on at least three independent occasions (each with technical duplicates) and statistical significance was assessed using Mann Whitney U tests.
(§2) The resulting MMV030084-resistant parasites were cloned by limiting dilution ([Baker et al., 2017]) to obtain genetically homogenous cultures for further phenotyping and whole-genome sequencing. A second round of […]. […] Drug susceptibility of resistant lines was assessed using a 72 h ABS assay as described above, and a Mann Whitney U test was applied to assess statistically significant differences.

[1] = system: Dd2-B2 TKL3KO parasites with PP1 H237D/V249L or URP E20* mutations; experiment: 72-h ABS assay, lines pulse-selected from ed. Dd2-B2 TKL3KO; assay type: cell-based; conditions: Plasmodium falciparum, parent ed. Dd2-B2 TKL3KO
Description: as §1, §2

[2] = system: NF54 CDPK1T145M mutant line; experiment: ABS susceptibility, CDPK1 gatekeeper mutant line; assay type: cell-based; conditions: Plasmodium falciparum, NF54, read-out: Mean IC50
Description: as §1

casein kinase 1δ = target: T1, casein kinase 1δ (Homo sapiens, UniProt P48730); experiment: Chemoproteomics in human mixed tissue extracts; assay type: binding; conditions: read-out: Kdapp
T1 construct: human cell/tissue protein extract (a mixture of HEK-293, K-562, Hep G2 , and placental cells); endogenous in cells; host or cells: mixture of HEK-293, K-562, Hep G2 and placenta
Description: (§3) Human extracts were prepared as described ([Bantscheff et al., 2011]). Briefly, frozen cell pellets were homogenized in lysis buffer (50 mM Tris-HCl, 0.8% Igepal-CA630, 5% glycerol, 150 mM NaCl, 1.5 mM MgCl2, 25 mM sodium fluoride, 1 mM sodium vanadate, 1 mM DTT, pH 7.5). One cOmplete EDTA-free protease inhibitor tablet (Roche) was added per 25 ml. Samples were dispersed using a Dounce homogenizer, rotated for 30 min at 4°C, and centrifuged at 20,000g for 10 min at 4°C. Supernatants were then recentrifuged at 145,000g for 1 h at 4°C. Protein concentrations were determined using a Bradford assay (BioRad). Aliquots were snap frozen in liquid nitrogen and stored at −80°C.
(§4) Kinobeads were prepared by immobilizing Bis-(III) indolyl-maleimide, purvalanol B, staurosporine and CZC8004, and the analogs of PD173955, sunitinib and vandetanib on NHS-activated Sepharose 4 beads (Amersham) ([Bantscheff et al., 2007]). […] The chemoproteomic affinity-capturing experiments were performed as previously described ([Bantscheff et al., 2011]). Briefly, beads were washed and equilibrated in lysis buffer (50 mM Tris-HCl, pH 7.4, 0.4 % Igepal-CA630, 1.5 mM MgCl2, 5 % Glycerol, 150 mM NaCl, 25 mM NaF, 1 mM Na3VO4, 1 mM DTT, and one cOmplete EDTA-free protease inhibitor tablet (Roche) per 25 mL). The beads were incubated at 4°C for 1 h with either 0.1 ml (0.3 mg) Pf blood stage extract or 0.5 mL (2.5 mg) human cell/tissue protein extract (a mixture of HEK-293, K-562, Hep G2 , and placental cells), which was pre-incubated with compound or DMSO (vehicle control). 10 samples were measured in parallel (TMT 10-plex ([Werner et al., 2014])) to generate values for the affinity of the beads to the bound proteins (“depletion” values, 4 samples) and to generate IC50 values (6 samples) in a single experiment. Apparent dissociation constants were determined after accounting for protein depletion by the beads ([Bantscheff et al., 2011]). Beads were transferred to Filter plates (Durapore PVDF membrane, Merck Millipore), washed with lysis buffer, and eluted with SDS sample buffer.
(§5) Proteins were digested according to a modified single pot solid-phase sample preparation (SP3) protocol ([Hughes et al., 2014]). Peptides were labeled with isobaric mass tags (Thermo Fisher Scientific, Waltham, MA) using 10-plex TMT reagents, enabling relative quantification of 10 conditions in a single experiment ([Werner et al., 2014]). The labeling reactions and LC-MS/MS measurements using Q Exactive Orbitrap or Orbitrap Fusion Lumos mass spectrometers (Thermo Fisher Scientific) were performed as described elsewhere ([Sridharan et al., 2019]). Mascot 2.4 (Matrix Science, Boston, MA) was used for protein identification by using a 10 parts per million mass tolerance for peptide precursors and 20 mD (HCD) mass tolerance for fragment ions. To create the fasta file for mascot searching, all proteins corresponding to the taxonomy ‘Plasmodium falciparum (isolate 3D7)’ were downloaded from Uniprot (release 20170621) and supplemented with common contaminant protein sequences of bovine serum albumin, porcine trypsin and mouse, rat, sheep and dog keratins. To assess the false discovery rate (FDR), “decoy” proteins (reverse of all protein sequences) were created and added to the database, resulting in a database containing a total of 14266 protein sequences, with 50% forward and 50% reverse. For peptide and protein identification of human proteins see ([Sridharan et al., 2019]). Unless stated otherwise, we accepted protein identifications as follows: (i) For single-spectrum to sequence assignments, we required this assignment to be the best match and a minimum Mascot score of 31 and a 10× difference of this assignment over the next best assignment. Based on these criteria, the decoy search results indicated <1% false discovery rate (FDR). (ii) For multiple spectrum to sequence assignments and using the same parameters, the decoy search results indicated <0.1% FDR. […]

nemo-like kinase = target: T2, nemo-like kinase (Homo sapiens, UniProt Q9UBE8); experiment: Chemoproteomics in human mixed tissue extracts; assay type: binding; conditions: read-out: Kdapp
T2 construct: human cell/tissue protein extract (a mixture of HEK-293, K-562, Hep G2 , and placental cells); endogenous in cells; host or cells: mixture of HEK-293, K-562, Hep G2 and placenta
Description: as §3, §4, §5

protein kinase N3 = target: T3, protein kinase N3 (Homo sapiens, UniProt Q6P5Z2); experiment: Chemoproteomics in human mixed tissue extracts; assay type: binding; conditions: read-out: Kdapp
T3 construct: human cell/tissue protein extract (a mixture of HEK-293, K-562, Hep G2 , and placental cells); endogenous in cells; host or cells: mixture of HEK-293, K-562, Hep G2 and placenta
Description: as §3, §4, §5

[3] = target: T4, receptor interacting serine/threonine kinase 2 (Homo sapiens, UniProt O43353); experiment: Chemoproteomics in human mixed tissue extracts; assay type: binding; conditions: read-out: Kdapp
T4 construct: human cell/tissue protein extract (a mixture of HEK-293, K-562, Hep G2 , and placental cells); endogenous in cells; host or cells: mixture of HEK-293, K-562, Hep G2 and placenta
Description: as §3, §4, §5

[4] = target: T5, testis-associated actin remodeling kinase 2 (Homo sapiens, UniProt Q96S53); experiment: Chemoproteomics in human mixed tissue extracts; assay type: binding; conditions: read-out: Kdapp
T5 construct: human cell/tissue protein extract (a mixture of HEK-293, K-562, Hep G2 , and placental cells); endogenous in cells; host or cells: mixture of HEK-293, K-562, Hep G2 and placenta
Description: as §3, §4, §5

[5] = target: T6, transforming growth factor β receptor 1 (Homo sapiens, UniProt P36897); experiment: Chemoproteomics in human mixed tissue extracts; assay type: binding; conditions: read-out: Kdapp
T6 construct: human cell/tissue protein extract (a mixture of HEK-293, K-562, Hep G2 , and placental cells); endogenous in cells; host or cells: mixture of HEK-293, K-562, Hep G2 and placenta
Description: as §3, §4, §5

[6] = target: T7, transforming growth factor β receptor 2 (Homo sapiens, UniProt P37173); experiment: Chemoproteomics in human mixed tissue extracts; assay type: binding; conditions: read-out: Kdapp
T7 construct: human cell/tissue protein extract (a mixture of HEK-293, K-562, Hep G2 , and placental cells); endogenous in cells; host or cells: mixture of HEK-293, K-562, Hep G2 and placenta
Description: as §3, §4, §5

T7 sequence (P37173 23-567): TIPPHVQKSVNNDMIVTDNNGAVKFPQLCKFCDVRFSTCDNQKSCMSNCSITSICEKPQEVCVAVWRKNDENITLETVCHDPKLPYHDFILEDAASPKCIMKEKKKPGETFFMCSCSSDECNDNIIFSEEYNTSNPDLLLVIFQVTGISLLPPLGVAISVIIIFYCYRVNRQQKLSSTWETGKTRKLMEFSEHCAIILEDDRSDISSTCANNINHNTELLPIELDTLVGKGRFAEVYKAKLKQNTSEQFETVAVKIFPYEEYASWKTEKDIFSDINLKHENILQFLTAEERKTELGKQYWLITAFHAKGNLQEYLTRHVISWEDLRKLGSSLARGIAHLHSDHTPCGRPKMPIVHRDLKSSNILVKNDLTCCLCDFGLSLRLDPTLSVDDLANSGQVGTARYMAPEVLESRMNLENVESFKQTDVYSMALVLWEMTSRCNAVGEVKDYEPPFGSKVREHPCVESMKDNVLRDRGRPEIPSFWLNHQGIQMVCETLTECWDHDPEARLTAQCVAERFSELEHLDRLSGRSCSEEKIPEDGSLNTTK
T2 sequence (Q9UBE8 whole entry): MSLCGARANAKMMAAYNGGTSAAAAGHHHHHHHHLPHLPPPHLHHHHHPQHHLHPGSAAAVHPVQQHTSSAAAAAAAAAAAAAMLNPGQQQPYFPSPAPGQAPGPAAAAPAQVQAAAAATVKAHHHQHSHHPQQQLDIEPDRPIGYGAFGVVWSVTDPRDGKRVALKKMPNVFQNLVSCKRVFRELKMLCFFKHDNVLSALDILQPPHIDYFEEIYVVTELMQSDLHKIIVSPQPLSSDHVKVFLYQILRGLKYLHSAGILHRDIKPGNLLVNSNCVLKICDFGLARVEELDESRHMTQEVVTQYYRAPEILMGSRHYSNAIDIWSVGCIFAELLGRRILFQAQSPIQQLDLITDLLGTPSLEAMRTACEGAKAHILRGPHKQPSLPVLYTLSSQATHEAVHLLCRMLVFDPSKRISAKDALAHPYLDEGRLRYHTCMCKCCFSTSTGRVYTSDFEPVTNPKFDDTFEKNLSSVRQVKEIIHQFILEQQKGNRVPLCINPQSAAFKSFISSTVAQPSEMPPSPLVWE
T6 sequence (P36897 34-503): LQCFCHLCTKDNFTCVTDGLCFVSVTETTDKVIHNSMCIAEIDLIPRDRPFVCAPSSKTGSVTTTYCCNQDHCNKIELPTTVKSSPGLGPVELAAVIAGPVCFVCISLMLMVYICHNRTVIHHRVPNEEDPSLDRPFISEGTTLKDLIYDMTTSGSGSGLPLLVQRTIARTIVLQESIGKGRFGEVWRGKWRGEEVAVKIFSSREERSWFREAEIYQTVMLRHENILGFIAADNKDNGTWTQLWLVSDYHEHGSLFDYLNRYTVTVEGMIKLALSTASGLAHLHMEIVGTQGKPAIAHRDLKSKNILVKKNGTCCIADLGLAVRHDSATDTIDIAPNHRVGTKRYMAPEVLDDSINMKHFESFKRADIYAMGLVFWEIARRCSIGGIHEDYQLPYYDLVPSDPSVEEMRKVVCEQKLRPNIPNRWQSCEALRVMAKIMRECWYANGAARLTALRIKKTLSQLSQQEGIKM
T3 sequence (Q6P5Z2 whole entry): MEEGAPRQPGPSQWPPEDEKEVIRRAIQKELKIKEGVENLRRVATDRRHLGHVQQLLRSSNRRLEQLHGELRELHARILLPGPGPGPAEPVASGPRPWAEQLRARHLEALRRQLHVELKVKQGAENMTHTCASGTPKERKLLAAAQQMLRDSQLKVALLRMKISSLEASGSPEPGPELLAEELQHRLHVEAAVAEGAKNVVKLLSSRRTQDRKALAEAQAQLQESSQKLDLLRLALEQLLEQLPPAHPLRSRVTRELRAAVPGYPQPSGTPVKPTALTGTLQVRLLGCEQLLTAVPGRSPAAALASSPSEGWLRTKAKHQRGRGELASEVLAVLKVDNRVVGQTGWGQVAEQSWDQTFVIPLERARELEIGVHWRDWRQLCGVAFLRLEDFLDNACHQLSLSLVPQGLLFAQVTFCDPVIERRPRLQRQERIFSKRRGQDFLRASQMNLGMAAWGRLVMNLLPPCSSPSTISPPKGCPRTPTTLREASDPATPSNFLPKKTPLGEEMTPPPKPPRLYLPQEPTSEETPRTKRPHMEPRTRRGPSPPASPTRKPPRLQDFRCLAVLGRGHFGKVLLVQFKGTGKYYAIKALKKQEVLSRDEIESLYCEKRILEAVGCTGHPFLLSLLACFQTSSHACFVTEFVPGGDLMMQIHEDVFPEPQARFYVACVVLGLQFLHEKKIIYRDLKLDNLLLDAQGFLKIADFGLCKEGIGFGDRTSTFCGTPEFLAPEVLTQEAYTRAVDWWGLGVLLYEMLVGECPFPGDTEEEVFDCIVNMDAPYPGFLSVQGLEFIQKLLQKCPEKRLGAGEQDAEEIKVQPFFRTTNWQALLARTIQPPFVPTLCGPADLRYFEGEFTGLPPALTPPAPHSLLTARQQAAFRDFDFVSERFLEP
T4 sequence (O43353 whole entry): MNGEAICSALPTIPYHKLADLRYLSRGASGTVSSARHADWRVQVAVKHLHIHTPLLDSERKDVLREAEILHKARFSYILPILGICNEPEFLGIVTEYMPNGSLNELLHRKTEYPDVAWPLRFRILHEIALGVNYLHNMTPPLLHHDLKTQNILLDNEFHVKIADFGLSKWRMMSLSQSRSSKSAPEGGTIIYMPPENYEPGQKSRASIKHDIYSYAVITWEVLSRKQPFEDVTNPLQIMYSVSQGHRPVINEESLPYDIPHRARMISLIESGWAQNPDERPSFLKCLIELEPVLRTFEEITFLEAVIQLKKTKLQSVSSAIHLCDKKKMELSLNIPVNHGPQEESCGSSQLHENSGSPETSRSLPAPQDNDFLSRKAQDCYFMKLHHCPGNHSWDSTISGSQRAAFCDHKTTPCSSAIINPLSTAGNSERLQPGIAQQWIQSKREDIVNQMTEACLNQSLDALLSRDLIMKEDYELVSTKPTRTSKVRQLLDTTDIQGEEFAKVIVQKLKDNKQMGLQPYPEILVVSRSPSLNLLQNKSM
T1 sequence (P48730 whole entry): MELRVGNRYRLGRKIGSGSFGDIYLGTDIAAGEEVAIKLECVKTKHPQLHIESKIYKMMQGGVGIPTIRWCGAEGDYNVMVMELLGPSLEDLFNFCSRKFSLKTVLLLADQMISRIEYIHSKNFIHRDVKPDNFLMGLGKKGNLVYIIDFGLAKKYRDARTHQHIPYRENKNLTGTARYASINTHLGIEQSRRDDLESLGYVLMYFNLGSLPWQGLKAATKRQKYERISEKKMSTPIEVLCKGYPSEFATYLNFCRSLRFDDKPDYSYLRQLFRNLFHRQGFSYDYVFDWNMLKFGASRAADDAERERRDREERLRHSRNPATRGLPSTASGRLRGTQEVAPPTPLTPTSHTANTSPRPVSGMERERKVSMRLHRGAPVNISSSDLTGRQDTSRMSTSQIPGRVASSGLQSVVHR
T5 sequence (Q96S53 whole entry): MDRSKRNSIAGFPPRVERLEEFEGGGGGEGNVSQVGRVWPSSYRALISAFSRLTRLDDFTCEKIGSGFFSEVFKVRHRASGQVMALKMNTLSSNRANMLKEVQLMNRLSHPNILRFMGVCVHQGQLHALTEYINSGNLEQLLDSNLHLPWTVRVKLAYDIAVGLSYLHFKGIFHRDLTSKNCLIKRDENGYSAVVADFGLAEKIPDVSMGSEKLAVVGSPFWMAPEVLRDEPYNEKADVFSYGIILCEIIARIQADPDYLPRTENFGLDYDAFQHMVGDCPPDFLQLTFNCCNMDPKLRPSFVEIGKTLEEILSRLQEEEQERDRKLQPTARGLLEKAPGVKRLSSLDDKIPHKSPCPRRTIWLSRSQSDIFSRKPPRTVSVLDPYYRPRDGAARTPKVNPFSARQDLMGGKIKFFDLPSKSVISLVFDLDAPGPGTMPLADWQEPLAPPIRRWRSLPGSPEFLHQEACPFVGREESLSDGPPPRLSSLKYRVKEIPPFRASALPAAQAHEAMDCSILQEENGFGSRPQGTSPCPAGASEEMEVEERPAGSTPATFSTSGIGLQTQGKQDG

**Q.** What does the source list for CC(C)(CN)c1nc(-c2ccc(Cl)c(O)c2)c(-c2ccncc2)[nH]1 [MMV030084]?
**A.** pIC50 (Pf 3D7-A10 ABS parasites): 6.75; pIC50 (sel. Dd2-B2 TKL3T1268R): 6.45; pIC50 ([1]; DD2, Line sel. Dd2-B2 TKL3KO + PP1H237D): 6.21; pIC50 ([1]; DD2, Line sel. Dd2-B2 TKL3KO + PP1V249L): 6.26; pIC50 ([1]; DD2, Line sel. Dd2-B2 TKL3KO + URPE20*): 6.09; pIC50 [2]: 7.05; pKd (casein kinase 1δ): 7.02; pKd (nemo-like kinase): 7.70; pKd (protein kinase N3): 8.07; pKd [3]: 8.35; pKd [4]: 7.60; pKd [5]: 7.70; pKd [6]: 7.46
